In patent publication US20120115896A1, “ISOGENIC HUMAN CELL LINES COMPRISING MUTATED CANCER ALLELES AND PROCESS USING THE CELL LINES” (priority 2008, published 2012):
Read-outs that look alike come from different tables or passages of the source.

Tests used:
[1] = system: hTERT-HME1 cells of the indicated genotype (WT, PIK3CA KI, KRAS G13D, DKI KRAS G13D + PIK3CA H1047R); assay: Cell cycle analysis by flow cytometry (propidium iodide) after everolimus 500 nM for 48 h; type: cell-based, human; settings: for cells in G1 phase, Mean / cells in G2/M phase, Mean / cells in S phase, Mean / cells in G2 + S, Mean / cells in Sub-G1, Mean: FACS
Protocol: (A) CFSE-labelled cells were analyzed by flow cytometry at the indicated time-points (top panels). The maximum fluorescence intensity for all samples was recorded at day 0 (depicted in filled black). […] (B) Cells of the indicated genotype were incubated with everolimus 500 nM for 48 h, after which cell cycle was analyzed by flow cytometry. No increase of the subG1 apoptotic fraction of cells was observed upon treatment. Representative data from 3 independent experiments are shown.
For time-course experiments, on the initial day hTERT-HME1 cells were labelled with 3 μM CFSE (5-(and -6)-carboxyfluorescein diacetate, succinimidyl ester, Invitrogen C1157, Milan, Italy) in PBS in the dark for 30 minutes. After washing and recording baseline fluorescence, cells were plated in media containing 1% FBS and 2 ng/mL EGF, and treatment with everolimus was initiated, replenishing the drug on a daily basis. For cell cycle analysis, trypsinized cells were washed with PBS and cell nuclei DNA were stained with propidium iodide (PI) for at least 120 minutes using a commercial kit (DNA con 3, Consul T.S., Orbassano, Italy).
All fluorescence levels were detected by flow cytometry on a FACSCalibur (Becton Dickinson, Milan, Italy) and analyzed using CellQuest software. The number of events collected for each sample varied between 15,000 and 50,000. After doublets exclusion, an extended analysis of the DNA content and calculations of the percentage of cells in each phase of the cell cycle were performed on ModFit Lt software (Verity Software House, Topsham, Me.).
To shed light on the preferential effect induced by everolimus in PIK3CA KI clones, the present inventors also performed FACS analysis. […] The data shown in table 7 are the results of hTERT-HME1 cells of the indicated genotype incubated for 48 h with everolimus (500 nM), wherein the effect on cell cycle was analyzed by FACS. […] Accordingly, the proportions of cells in the S- and G2/M-phases decreased. Means of at least 4 independent experiments are shown. Significance by paired t test was taken at p<0.01.
To further explore the role of mutant KRAS on everolimus' response, the present inventors recapitulated the genetic milieu of the HCT116 colorectal cancer cells in hTERT-HME1 cells, by introducing via homologous recombination both KRAS G13D and PIK3CA H1047R alleles in their genome. This approach generated double-KI (DKI) cells, in which each mutation is expressed under the corresponding gene's own promoter. […] Means of at least 4 independent experiments are shown. Significance by paired t test was taken at p<0.01.

[2] = system: phosphorylation of p70S6K, RpS6, AKT and MAPK in HCT 116 and KRAS WT/- HKe-3 cells; assay: Biochemical effects of everolimus: immunoblot and ELISA of phospho-proteins; type: cell-based, human; settings: everolimus 500 nM, 30 minutes
Protocol: (A, D) After 30 minutes'treatment with everolimus 500 nM, HCT 116 parental cells and its derivative KRAS WT/-HKe-3 clone were lysed and immunoblotted with the anti-phospho-P70S6K, totalP70S6K, phospho-MAPK and total MAPK (B, C, E) The same lysates were used also for ELISA measurements of total AKT, phosphoAKT (Thr308), phosphoAKT (Ser473), total RpS6 and phosphoRpS6 levels. Numbers indicate the ratio of phosphorylated protein related to total protein levels and are normalized respect to the untreated (NT) HCT 116 cells.
SDS PAGE was performed using Invitrogen Precasted gels (Invitrogen Carlsbad, Calif.); western blotting transfer onto Hybond-C Extra membranes (Amersham, Amersham Biosciences, Uppsala, Sweden) was done following standard methods. The primary antibodies used for immunoblotting were: Anti-AKT (Cell Signaling, Technology, Danvers, Mass.); Anti-phospho-AKT S473 (Cell Signaling, Technology, Danvers, Mass.); Anti-Actin and Anti-Vinculin (Sigma-Aldrich, St. Louis, Mo.); Phospho-p44/42 Map kinase (Thr202/Tyr204) (Cell Signaling, Technology, Danvers, Mass.); Anti-phospho-EGFR Receptor (Tyr 1068) and Anti EGFR Receptor (Cell Signaling Technology, Danvers, Mass.).

ME-180 cells = assay: Proliferation under everolimus (72 hours) of cells infected with control or KRASG13D lentivirus; type: cell-based, human; settings: KRAS G13D lentivirus, FIG. 17B
Protocol: (§1) Effect of everolimus (72 hours) on proliferation of HKe-3 (HCT116-derivative KRAS WT clone) (A) and ME-180 (B) cells infected with control or KRASG13D lentivirus.
(§2) The present inventors transduced HCT116-derivative clones that had only the KRAS WT allele (HKe-3), and the […] cancer cell line ME-180 (carrying PIK3CA E545K mutant and KRAS WT) with a lentiviral vector encoding for KRAS G13D cDNA.

[3] = system: HKe-3 (HCT116-derivative KRAS WT clone) cells; assay: as above; type: cell-based, human; settings: KRAS G13D lentivirus, FIG. 17A
Protocol: as §1, §2

[4] = system: hTERT-HME1 DKI cells carrying PIK3CA (H1047R) and EGFR (delE746-A750)
[5] = system: DLD-1 colorectal cancer cells and derivative clones (DKO-1, DKO-3, DKO-4, PIK3CA WT/mutant); assay: Viability (ATP assay) of DLD-1 cells and isogenic KRAS / PIK3CA derivative clones
Protocol: (§3) Results are expressed as percent of viability compared to cells treated with DMSO only ('control') and represent mean±SD of at least three independent observations.
(§4) After serial dilutions, 100 μl of drugs in serum free medium were added to cells with a multichannel pipette. Vehicle and medium-only containing wells were added as controls. Plates were incubated at 37° C. in 5% CO2 for 96 h, after which cell viability was assessed by ATP content using the CellTiter-Glo® Luminescent Assay (Promega Madison, Wis.).

[6] = system: HCT 116 colorectal cancer cells and derivative clones (HKh-2, HKe-3, HK2-6, PIK3CA WT/mutant); assay: Viability (ATP assay) of HCT 116 cells and isogenic KRAS / PIK3CA derivative clones
Protocol: as §3, §4

[7] = hTERT-HME1 DKI KRAS G13D + PIK3CA H1047R, propidium iodide
[8] = hTERT-HME1 KI KRAS G13D, propidium iodide

CO[C@H]1C[C@@H]2CC[C@@H](C)[C@@](O)(O2)C(=O)C(=O)N2CCCC[C@H]2C(=O)O[C@H]([C@H](C)C[C@@H]2CC[C@@H](OCCO)[C@H](OC)C2)CC(=O)[C@H](C)/C=C(\C)[C@@H](O)[C@@H](OC)C(=O)[C@H](C)C[C@H](C)/C=C/C=C/C=C/1C [everolimus, Everolimus]
cell cycle response of DKI cells (KRAS G13D and PIK3CA H1047R) [1]: cell cycle response comparable to that observed in the parental WT population
cells in G1 phase, Mean [1, 7]: 77.5
cells in G2/M phase, Mean [1, 7]: 10.5
cells in S phase, Mean [1, 7]: 12.0
cells in G1 phase, Mean [1, 8]: 75.7
cells in G2/M phase, Mean [1, 8]: 13.1
cells in S phase, Mean [1, 8]: 11.2
cells in G1 phase, Mean ([1]; hTERT-HME1 KI PIK3CA E545K): 78.5
cells in G2 + S, Mean ([1]; hTERT-HME1 KI PIK3CA E545K): 21.5
cells in G2/M phase, Mean ([1]; hTERT-HME1 KI PIK3CA E545K): 12.7
cells in S phase, Mean ([1]; hTERT-HME1 KI PIK3CA E545K): 8.8
cells in Sub-G1, Mean ([1]; hTERT-HME1 KI PIK3CA E545K): 0.9
cells in G1 phase, Mean ([1]; hTERT-HME1 KI PIK3CA H1047R): 88.7
cells in G2 + S, Mean ([1]; hTERT-HME1 KI PIK3CA H1047R): 11.3
cells in G2/M phase, Mean ([1]; hTERT-HME1 KI PIK3CA H1047R): 4.9
cells in S phase, Mean ([1]; hTERT-HME1 KI PIK3CA H1047R): 6.4
cells in Sub-G1, Mean ([1]; hTERT-HME1 KI PIK3CA H1047R): 0.6
cells in G1 phase, Mean ([1]; hTERT-HME1 WT): 75.7
cells in G2 + S, Mean ([1]; hTERT-HME1 WT): 24.3
cells in G2/M phase, Mean ([1]; hTERT-HME1 WT): 14.2
cells in S phase, Mean ([1]; hTERT-HME1 WT): 10.1
cells in Sub-G1, Mean ([1]; hTERT-HME1 WT): 0.9
apoptosis ([1]; vehicle versus drug-treated, FIG. 18B): almost undetectable
MAPK phosphorylation in drug treated HKe-3 cells compared to parental ([2]; FIG. 15A): higher level of MAPK phosphorylation
levels of activated RpS6 ([2]; FIG. 15E): decreased accordingly
phosphorylation of p70S6K ([2]; parental and KRAS D13 deleted cells, FIG. 15D): abrogated
response after introduction of mutated KRAS versus control vector (ME-180 cells): decreased response to the antiproliferative effects
response after (re-)introduction of mutated KRAS versus control vector [3]: decreased response to the antiproliferative effects
ΔKI PIK3CA + EGFR ([4]; Log(M) −5.70): 0
ΔKI PIK3CA + EGFR ([4]; Log(M) −6.70): 1.38
ΔKI PIK3CA + EGFR ([4]; Log(M) −7.70): 0
ΔKI PIK3CA + EGFR ([4]; Log(M) −8.70): 0.68
ΔKI PIK3CA + EGFR ([4]; Log(M) −9.70): 0
response of DLD-1 clones knock-out for the mutated KRAS D13 allele versus parental / DKO-1 ([5]; DKO-3 and DKO-4, FIG. 7C): more sensitive to everolimus
response of DLD-1 cells knock-out for the mutated PIK3CA K545 allele ([5]; FIG. 14B): as sensitive to everolimus as either the corresponding parental cells or a clone retaining only the PIK3CA mutated allele
response of HCT 116 parental and isogenic cells carrying mutated KRAS ([6]; FIG. 7B): equally resistant
response of HCT 116 derivative cells retaining only the KRAS WT allele ([6]; HKh-2 and HKe-3, FIG. 7B): sensitive to everolimus
response of HCT 116 cells in which PIK3CA H1047R had been deleted ([6]; all clones retain mutated KRAS, FIG. 14A): non-responsive to everolimus
